# Source: patent publication US11752125B2, “Anti-neuroinflammatory and protective compounds in Achillea fragrantissima” (THE STATE OF ISRAEL MINISTRY OF AGRICULTURE & RURAL …, priority 2013, dated 2023)
# Key:
# astrocytes = assay: Cellular antioxidant activity (ABAP peroxyl radicals) in astrocytes; assay type: cell-based; settings: for effect on ABAP-generated peroxyl radical (ROS) fluorescence: astrocytes, ABAP 0.6 mM
# Experimental: In the cellular antioxidant activity (CAA) assay, cell viability was determined by a modification of the crystal violet assay (Kueng et al., 1989) as follows. At the end of cell treatments, cells were fixed with 150 μL of 5% (v/v) formaldehyde (in PBS) for 15 min at room temperature. Plates were washed by submersion in de-ionized water, dried and stained for 15 min with 150 μL of a 1% crystal violet solution. After careful aspiration of the crystal violet solution the plates were washed with de-ionized water, and dried prior to the solubilization of the bound dye with 150 μL of a 33% aqueous glacial acetic acid solution. The optical density of the plates was measured at 540 nm (with a 690 nm reference filter) in a microplate spectrophotometer.
# Intracellular ROS production was detected using the non-fluorescent cell permeating compound, 2′7′-dichlorofluorescein diacetate (DCF-DA). DCF-DA is hydrolyzed by intracellular esterases and then oxidized by ROS to a fluorescent compound 2′-7′-DCF. Peroxyl radicals are generated by thermolysis of 2,2′-Azobis(amidinopropane) (ABAP) at physiological temperature. ABAP decomposes at approximately 1.36×10^−6s^−1 at 37° C., producing at most 1×10^12 radicals/mL/s (Bowry and Stocker, 1993; Niki et al., 1986; Thomas et al., 1997). Astrocytes (300,000 cells/well) were plated in DMEM containing 2% FBS, 8.4 mM HEPES, 2 mM glutamine, 100 U/mL penicillin and 100 μg/mL streptomycin, onto 24 well plates. In order to measure the ability of TTF to enter the cells and prevent the formation of dichlorofluorescein (DCF) by ABAP-generated peroxyl radicals, cells were incubated for 1 h with TTF. […] The fluorescence, which indicates ROS levels, was measured in a plate reader with excitation at 485 nm and emission at 520 nm.
# 2. […] Read “time 0” fluorescence (Ex: 485 nm and Em: 528 nm); 7. […] Read fluorescence at 3, 6, and 24 hr Ex: 485 nm and Em: 528 nm; 9. […]
# Astrocytes were incubated with TTF or quercetin for 2 h. […] ABAP (0.6 mM) was added to the culture and the fluorescence intensity, representing ROS levels was measured. […]
# NO = NO (nitrite) production by LPS-activated microglial cells (Griess); assay type: cell-based, rat; settings: Rattus norvegicus; 40 μM (highest concentration tested); LPS 4.5 ng/mL, 20 h; read-out: inhibition of NO secretion
# Experimental: Cultures of primary rat microglial cells were prepared from cerebral cortices of 1-2 day-old neonatal Wistar rats as described. Microglial cells were seeded at 24-well plastic plates at 1×10^5/well in RPMI-1640 containing 2% FBS, 2 mM glutamine, 100 U/mL penicillin, 100 µg/mL streptomycin, 1 mM sodium pyruvate, and 50 μM β-mercaptoethanol. Cells were cultured for 36 h before treatments. The research was conducted in accordance with the NIH guide for the care and use of laboratory animals, and was approved by the Institutional Animal Care and Use Committee of The Volcani Center, Agricultural Research Organization (IL-135/07, approval date Apr. 11, 2007). All efforts were made to minimize animal suffering, and to reduce the number of animals used.
# For NO measurements, 1×10^5 microglial cells/well were plated in a 24-well tissue culture plate. Cells were stimulated with LPS (4.5 ng/mL) and concomitantly treated with achillolide A or a reference drug. NO levels in the culture medium were estimated with Griess reagent.
# 3. Activate microglial cells with lipopolysaccharide (LPS, 4.5 nanograms/mL);
# In FIG. 21 A, microglial cells were treated with different concentrations of achillolide A, dexamethasone or memantine (as reference drugs) and were concomitantly activated by LPS (4.5 ng/mL) for 20 h. Cell conditioned supernatants were collected, and the levels of NO were measured using Griess reaction. Cytotoxicity was measured using the LDH method (FIG. 21B). Values represent the mean±SEM (n=12 for each treatment). ** p<0.01; ***p<0.001 relative to cells that were treated to LPS only.
SMILES,effect on ABAP-generated peroxyl radical (ROS) fluorescence (astrocytes),"cell viability in the cellular antioxidant activity assay (astrocytes; crystal violet, 20 h after ABAP)",inhibition at 40 µM (NO) [%]
"COc1cc(-c2oc3cc(OC)c(OC)c(O)c3c(=O)c2O)ccc1O [TTF, 3,5,4′-trihydroxy-6,7,3′-trimethoxyflavone]",moderated the increase in ROS-induced fluorescence,cell viability was not affected,
C=C1CCC2=C(CO)C(=O)O[C@H]2/C=C(\C)[C@H](OC(C)=O)CC1=O [achillolide A],,,66
"CC12CC3CC(C)(C1)CC(N)(C3)C2 [memantine, reference compound]",,,64
"O=c1c(O)c(-c2ccc(O)c(O)c2)oc2cc(O)cc(O)c12 [quercetin, 3,3′,4′,5,7-Pentahydroxyflavone, reference compound]",similarly effective as TTF,,
